Data from patent US9440956B2, “Indole, indazole and benzimidazole arylamides as P2X3 and P2X2/3 antagonists” (Roche Palo Alto LLC, priority 2010, dated 2016).

What was measured:
rat P2X3 receptor = molecular target: T1, rat P2X3 receptor (Rattus norvegicus, UniProt P49654); experiment: P2X3 FLIPR (Fluorometric Imaging Plate Reader) assay; type: cell-based; conditions: CHO-K1 cells transfected with cloned rat P2X3; agonist α,β-meATP 1 μM; Fluo-3 calcium fluorescence
T1 construct: expressed in transfected cells; host or cells: CHO-K1
T1 sequence (P49654 1-397): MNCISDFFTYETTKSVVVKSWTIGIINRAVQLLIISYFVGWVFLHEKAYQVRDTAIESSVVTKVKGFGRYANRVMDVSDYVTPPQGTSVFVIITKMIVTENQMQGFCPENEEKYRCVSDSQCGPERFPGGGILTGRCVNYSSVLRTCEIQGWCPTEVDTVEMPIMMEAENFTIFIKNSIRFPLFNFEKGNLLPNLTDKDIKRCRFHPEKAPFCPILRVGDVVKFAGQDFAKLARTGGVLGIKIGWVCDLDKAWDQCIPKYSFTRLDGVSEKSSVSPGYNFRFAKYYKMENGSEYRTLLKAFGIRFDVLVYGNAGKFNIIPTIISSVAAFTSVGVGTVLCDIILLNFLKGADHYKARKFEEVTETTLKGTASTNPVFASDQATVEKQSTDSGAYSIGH
Method: (§1) P2X3/P2X2/3 FLIPR (Fluorometric Imaging Plate Reader) Assay
(§2) CHO-K1 cells were transfected with cloned rat P2X3 or human P2X2/3 receptor subunits and passaged in flasks. 18-24 hours before the FLIPR experiment, cells were released from their flasks, centrifuged, and resuspended in nutrient medium at 2.5×10^5 cells/ml. The cells were aliquoted into black-walled 96-well plates at a density of 50,000 cells/well and incubated overnight in 5% CO2 at 37° C. On the day of the experiment, cells were washed in FLIPR buffer (calcium- and magnesium-free Hank's balanced salt solution, 10 mM HEPES, 2 mM CaCl2, 2.5 mM probenecid; FB). Each well received 100 μl FB and 100 μl of the fluorescent dye Fluo-3 AM [2 μM final conc.]. After a 1 hour dye loading incubation at 37° C., the cells were washed 4 times with FB, and a final 75 μl/well FB was left in each well.
(§3) Test compounds (dissolved in DMSO at 10 mM and serially diluted with FB) or vehicle were added to each well (25 μl of a 4× solution) and allowed to equilibrate for 20 minutes at room temperature. The plates were then placed in the FLIPR and a baseline fluorescence measurement (excitation at 488 nm and emission at 510-570 nm) was obtained for 10 seconds before a 100 μl/well agonist or vehicle addition. The agonist was a 2× solution of α,β-meATP producing a final concentration of 1 μM (P2X3) or 5 μM (P2X2/3). Fluorescence was measured for an additional 2 minutes at 1 second intervals after agonist addition. A final addition of ionomycin (5 μM, final concentration) was made to each well of the FLIPR test plate to establish cell viability and maximum fluorescence of dye-bound cytosolic calcium. Peak fluorescence in response to the addition of α,β-meATP (in the absence and presence of test compounds) was measured and inhibition curves generated using nonlinear regression. PPADS, a standard P2X antagonist, was used as a positive control.

human P2X2/3 receptor = molecular target: T2, human P2X2/3 receptor (Homo sapiens, UniProt P56373+Q9UBL9); experiment: P2X2/3 FLIPR (Fluorometric Imaging Plate Reader) assay; type: cell-based; conditions: CHO-K1 cells transfected with human P2X2/3; agonist α,β-meATP 5 μM; Fluo-3 calcium fluorescence
T2 construct: expressed in transfected cells; host or cells: CHO-K1
T2 sequence (Q9UBL9 1-471): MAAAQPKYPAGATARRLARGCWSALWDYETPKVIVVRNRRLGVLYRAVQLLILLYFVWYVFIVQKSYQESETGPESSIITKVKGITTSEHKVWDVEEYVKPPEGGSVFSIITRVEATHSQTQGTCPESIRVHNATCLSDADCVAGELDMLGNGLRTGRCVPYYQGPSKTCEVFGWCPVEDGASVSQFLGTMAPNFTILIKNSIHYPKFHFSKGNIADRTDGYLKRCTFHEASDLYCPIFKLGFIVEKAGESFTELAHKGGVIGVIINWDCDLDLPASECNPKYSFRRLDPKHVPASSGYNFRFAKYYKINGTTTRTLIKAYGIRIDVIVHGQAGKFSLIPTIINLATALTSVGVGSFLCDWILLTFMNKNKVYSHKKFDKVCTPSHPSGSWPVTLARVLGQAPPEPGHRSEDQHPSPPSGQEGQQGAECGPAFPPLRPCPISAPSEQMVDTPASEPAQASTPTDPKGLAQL
T2 sequence (P56373 1-397): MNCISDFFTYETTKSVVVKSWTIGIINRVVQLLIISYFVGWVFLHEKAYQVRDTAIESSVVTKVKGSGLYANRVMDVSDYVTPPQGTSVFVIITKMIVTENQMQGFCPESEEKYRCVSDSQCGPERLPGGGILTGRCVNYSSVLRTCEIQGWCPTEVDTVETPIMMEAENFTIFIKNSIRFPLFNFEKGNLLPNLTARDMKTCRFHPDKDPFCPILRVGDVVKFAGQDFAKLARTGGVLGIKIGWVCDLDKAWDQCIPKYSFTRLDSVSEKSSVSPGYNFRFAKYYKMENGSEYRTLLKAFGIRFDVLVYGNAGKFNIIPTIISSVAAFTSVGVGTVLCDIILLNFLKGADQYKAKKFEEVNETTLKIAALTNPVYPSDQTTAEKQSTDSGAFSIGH
Method: as §1, §2, §3

Compound	pKi P2X3 (rat P2X3 receptor)	pKi P2X2/3 (human P2X2/3 receptor)
Cc1ccc(-c2cc(C(=O)NCc3cnc(C)cn3)cc3c2cnn3CC(C)C)nc1 [Compound 1, 1-Isobutyl-4-(5-methyl-pyridin-2-yl)-1H-indazole-6-carboxylic acid (5-methyl-pyrazin-2-ylmethyl)-amide]	7.3	5.78
CCCCn1ncc2c(-c3ccc(C)cn3)cc(C(=O)NCc3cnc(C)cn3)cc21 [Compound 2, 1-Butyl-4-(5-methyl-pyridin-2-yl)-1H-indazole-6-carboxylic acid (5-methyl-pyrazin-2-ylmethyl)-amide]	7.38	6.34
CCCCn1ncc2c(-c3ccc(C)cn3)cc(C(=O)N[C@@H](C)CO)cc21 [Compound 3, 1-Butyl-4-(5-methyl-pyridin-2-yl)-1H-indazole-6-carboxylic acid ((S)-2-hydroxy-1-methyl-ethyl)-amide]	6.31	–
Cc1ccc(-c2cc(C(=O)NCc3cnc(C)cn3)cc3c2cnn3C(C)C)nc1 [Compound 4, 1-Isopropyl-4-(5-methyl-pyridin-2-yl)-1H-indazole-6-carboxylic acid (5-methyl-pyrazin-2-ylmethyl)-amide]	6.58	4.92
Cc1ccc(-c2cc(C(=O)N[C@@H](C)CO)cc3c2cnn3C(C)C)nc1 [Compound 5, 1-Isopropyl-4-(5-methyl-pyridin-2-yl)-1H-indazole-6-carboxylic acid ((S)-2-hydroxy-1-methyl-ethyl)-amide]	–	5
COCCn1ncc2c(-c3ccc(C)cn3)cc(C(=O)NCc3cnc(C)cn3)cc21 [Compound 6, 1-(2-Methoxy-ethyl)-4-(5-methyl-pyridin-2-yl)-1H-indazole-6-carboxylic acid (5-methyl-pyrazin-2-ylmethyl)-amide]	5.51	5
Cc1ccc(-c2cc(C(=O)NCc3cnc(C)cn3)cc3c2cnn3CCC(C)C)nc1 [Compound 7, 1-(3-Methyl-buty)-4-(5-methyl-pyridin-2-yl)-1H-indazole-6-carboxylic acid (5-methyl-pyrazin-2-ylmethyl)-amide]	7.47	6.17
Cc1ccc(-c2cc(C(=O)NCc3ccc(C)nn3)cc3c2cnn3CCC(C)C)nc1 [Compound 8, 1-(3-Methyl-butyl)-4-(5-methyl-pyridin-2-yl)-1H-indazole-6-carboxylic acid (6-methyl-pyridazin-3-ylmethyl)-amide]	7.66	6.23
Cc1ccc(-c2cc(C(=O)NCc3cnc(C)cn3)cc3c2cnn3Cc2ccccc2)nc1 [Compound 9, 1-Benzyl-4-(5-methyl-pyridin-2-yl)-1H-indazole-6-carboxylic acid (5-methyl-pyrazin-2-ylmethyl)-amide]	7.25	6.25
Cc1ccc(-c2cc(C(=O)N[C@@H](C)CO)cc3c2cnn3Cc2ccccc2)nc1 [Compound 10, 1-Benzyl-4-(5-methyl-pyridin-2-yl)-1H-indazole-6-carboxylic acid ((S)-2-hydroxy-1-methyl-ethyl)-amide]	6.2	5.61
Cc1ccc(-c2cc(C(=O)NCc3ccc(C)nn3)cc3c2cnn3Cc2ccccc2)nc1 [Compound 11, 1-Benzyl-4-(5-methyl-pyridin-2-yl)-1H-indazole-6-carboxylic acid (6-methyl-pyridazin-3-ylmethyl)-amide]	7.62	6.56
Cc1ccc(-c2cc(C(=O)NCc3cnc(C)cn3)cc3c2cnn3CC(F)(F)F)nc1 [Compound 12, 4-(5-Methyl-pyridin-2-yl)-1-(2,2,2-trifluoro-ethyl)-1H-indazole-6-carboxylic acid (5-methyl-pyrazin-2-ylmethyl)-amide]	6.52	5.7
Cc1ccc(-c2cc(C(=O)NCc3ccc(C)nn3)cc3c2cnn3CC(F)(F)F)nc1 [Compound 13, 4-(5-Methyl-pyridin-2-yl)-1-(2,2,2-trifluoro-ethyl)-1H-indazole-6-carboxylic acid (6-methyl-pyridazin-3-ylmethyl)-amide]	7.19	6.51
Cc1ccc(-c2cc(C(=O)NCc3cnc(C)cn3)cc3c2cnn3-c2ccccc2)nc1 [Compound 14, 4-(5-Methyl-pyridin-2-yl)-1-phenyl-1H-indazole-6-carboxylic acid (5-methyl-pyrazin-2-ylmethyl)-amide]	7.44	6.54
Cc1ccc(-c2cc(C(=O)N[C@@H](C)CO)cc3c2cnn3-c2ccccc2)nc1 [Compound 15, 4-(5-Methyl-pyridin-2-yl)-1-phenyl-1H-indazole-6-carboxylic acid ((S)-2-hydroxy-1-methyl-ethyl)-amide]	6.19	5.34
Cc1ccc(-n2ncc3c(-c4ccc(C)cn4)cc(C(=O)NCc4cnc(C)cn4)cc32)cc1 [Compound 16, 4-(5-Methyl-pyridin-2-yl)-1-p-tolyl-1H-indazole-6-carboxylic acid (5-methyl-pyrazin-2-ylmethyl)-amide]	7.7	6.4
Cc1ccc(-n2ncc3c(-c4ccc(C)cn4)cc(C(=O)N[C@@H](C)CO)cc32)cc1 [Compound 17, 4-(5-Methyl-pyridin-2-yl)-1-p-tolyl-1H-indazole-6-carboxylic acid ((S)-2-hydroxy-1-methyl-ethyl)-amide]	7.38	4.97
Cc1ccc(-c2cc(C(=O)NCc3cnc(C)cn3)cc3c2ccn3C(C)C)nc1 [Compound 26, 1-Isopropyl-4-(5-methyl-pyridin-2-yl)-1H-indole-6-carboxylic acid (5-methyl-pyrazin-2-ylmethyl)-amide]	6.26	–
Cc1ccc(-c2cc(C(=O)N[C@@H](C)CO)cc3c2ccn3C(C)C)nc1 [Compound 27, 1-Isopropyl-4-(5-methyl-pyridin-2-yl)-1H-indole-6-carboxylic acid ((S)-2-hydroxy-1-methyl-ethyl)-amide]	5.48	–
Cc1ccc(-c2cc(C(=O)NCc3cnc(C)cn3)cc3c2ncn3CC(C)C)nc1 [Compound 28, 3-Isobutyl-7-(5-methyl-pyridin-2-yl)-3H-benzoimidazole-5-carboxylic acid (5-methyl-pyrazin-2-ylmethyl)-amide]	6.46	–
Cc1ccc(-c2cc(C(=O)N[C@@H](C)CO)cc3c2ncn3CC(C)C)nc1 [Compound 29, 3-Isobutyl-7-(5-methyl-pyridin-2-yl)-3H-benzoimidazole-5-carboxylic acid ((S)-2-hydroxy-1-methyl-ethyl)-amide]	5.24	–
